Measurements published in patent US7192906B2, “Substituted pyrazole derivatives, production process thereof, and herbicide compositions containing the derivatives” (SDS Biotech K.K., priority 2001, dated 2007).

How the values were obtained:
Format in all cases: in vivo
soybean (Glycine max) [1] = assay: Test Example 2 upland soil treatment, crop phytotoxicity; conditions: Table 5, upland soil treatment, index 0-5
Outline: (§1)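 Score 0–5 read at day 21 (5 = ≥90% effect or phytotoxicity, 0 = <10%). Wettable powder diluted in water to 1 kg a.i./ha, applied uniformly to upland soil one day after sowing; seeds covered with ~1 cm soil.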

[2] = test system: wheat (Triticum aestivum); assay: as above; conditions: Table 5, upland soil treatment, index 0-5
Outline: as §1

Digitaria adscendens [3] = assay: Test Example 1 upland field foliage treatment; conditions: Table 4, upland field foliage treatment, index 0-5
Outline: (§2)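 Seeds sown in upland soil in pots and covered with about 1 cm soil; on day 14 after sowing, diluted wettable powder applied uniformly to leaves at 1 kg active ingredient per hectare. Weed control or crop phytotoxicity scored visually 21 days after application on a 0–5 scale (5 = ≥90%, 0 = <10%).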

Chenopodium album [4] = assay: Test Example 1 upland field foliage treatment; conditions: Table 4, upland field foliage treatment, index 0-5
Outline: as §2

Setaria viridis [5] = assay: Test Example 1 upland field foliage treatment; conditions: Table 4, upland field foliage treatment, index 0-5
Outline: as §2

Stellaria media [6] = assay: Test Example 1 upland field foliage treatment; conditions: Table 4, upland field foliage treatment, index 0-5
Outline: as §2

Digitaria adscendens [7] = assay: Test Example 2 upland soil treatment; conditions: Table 5, upland soil treatment, index 0-5
Outline: as §1

Chenopodium album [8] = assay: Test Example 2 upland soil treatment; conditions: Table 5, upland soil treatment, index 0-5
Outline: as §1

Setaria viridis [9] = assay: Test Example 2 upland soil treatment; conditions: Table 5, upland soil treatment, index 0-5
Outline: as §1

Stellaria media [10] = assay: Test Example 2 upland soil treatment; conditions: Table 5, upland soil treatment, index 0-5
Outline: as §1

Scirpus juncoides = assay: Test Example 3 paddy field treatment; conditions: paddy field treatment, wettable powder, active ingredient 1 kg per hectare, 21st day after the dropping, index 0-5
Outline: (§3)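 Weed seeds sown in puddled paddy soil under 4 cm water, with two-leaf Koshihikari rice transplanted; 10 days later a wettable powder was applied to the water surface at 1 kg active ingredient/ha. Scored 21 days after application on a 0–5 scale (0 = <10%, 5 = ≥90% herbicidal effect or phytotoxicity).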

Echinochloa crusgalli = assay: Test Example 3 paddy field treatment; conditions: paddy field treatment, wettable powder, active ingredient 1 kg per hectare, 21st day after the dropping, index 0-5
Outline: as §3

Monochoria vaginalis = assay: Test Example 3 paddy field treatment; conditions: paddy field treatment, wettable powder, active ingredient 1 kg per hectare, 21st day after the dropping, index 0-5
Outline: as §3

Ammannia multiflora = assay: Test Example 3 paddy field treatment; conditions: paddy field treatment, wettable powder, active ingredient 1 kg per hectare, 21st day after the dropping, index 0-5
Outline: as §3

soybean (Glycine max) [11] = assay: Test Example 1 upland field foliage treatment, crop phytotoxicity; conditions: Table 4, upland field foliage treatment, index 0-5
Outline: as §2

[12] = test system: wheat (Triticum aestivum); assay: as above; conditions: Table 4, upland field foliage treatment, index 0-5
Outline: as §2

Rice (Oryza sativa) = assay: Test Example 3 paddy field treatment, crop phytotoxicity; conditions: paddy field treatment, transplanted rice Koshihikari, wettable powder, active ingredient 1 kg per hectare, 21st day after the dropping, index 0-5
Outline: as §3

SMILES | Herbicidal activity (phytotoxicity) GM: Soybean (Glycine max) (soybean (Glycine max) [1]) | Herbicidal activity (phytotoxicity) TA: Wheat (Triticum aestivum) [2] | Herbicidal activity DA: Digitaria adscendens (Digitaria adscendens [3]) | Herbicidal activity CA: Chenopodium album (Chenopodium album [4]) | Herbicidal activity SV: Setaria viridis (Setaria viridis [5]) | Herbicidal activity SM: Stellaria media (Stellaria media [6]) | Herbicidal activity DA: Digitaria adscendens (Digitaria adscendens [7]) | Herbicidal activity CA: Chenopodium album (Chenopodium album [8]) | Herbicidal activity SV: Setaria viridis (Setaria viridis [9]) | Herbicidal activity SM: Stellaria media (Stellaria media [10]) | Herbicidal activity SJ (Scirpus juncoides) | Herbicidal activity EC (Echinochloa crusgalli) | Herbicidal activity MV (Monochoria vaginalis) | Herbicidal activity AM (Ammannia multiflora) | Herbicidal activity (phytotoxicity) GM: Soybean (Glycine max) (soybean (Glycine max) [11]) | Herbicidal activity (phytotoxicity) TA: Wheat (Triticum aestivum) [12] | Herbicidal activity OS (phytotoxicity to rice) (Rice (Oryza sativa))
CON=C(Cn1cc(C)c(-c2ccccc2)n1)C(=O)NC1CCCC1 [Compound 23] | 0 (herbicidal effect of not less than 0% and less than 10%, or phytotoxicity of 0% or more and less than 10%) | 0 (herbicidal effect of not less than 0% and less than 10%, or phytotoxicity of 0% or more and less than 10%) | 3 (herbicidal effect of not less than 50% and less than 70%, or phytotoxicity of 50% or more and less than 70%) | 4 (herbicidal effect of not less than 70% and less than 90%, or phytotoxicity of 70% or more and less than 90%) | 3 (herbicidal effect of not less than 50% and less than 70%, or phytotoxicity of 50% or more and less than 70%) | 4 (herbicidal effect of not less than 70% and less than 90%, or phytotoxicity of 70% or more and less than 90%) | 4 (herbicidal effect of not less than 70% and less than 90%, or phytotoxicity of 70% or more and less than 90%) | 5 (herbicidal effect of not less than 90%, or phytotoxicity of 90% or more) | 4 (herbicidal effect of not less than 70% and less than 90%, or phytotoxicity of 70% or more and less than 90%) | 4 (herbicidal effect of not less than 70% and less than 90%, or phytotoxicity of 70% or more and less than 90%) | 4 (herbicidal effect of not less than 70% and less than 90%, or phytotoxicity of 70% or more and less than 90%) | 4 (herbicidal effect of not less than 70% and less than 90%, or phytotoxicity of 70% or more and less than 90%) | 5 (herbicidal effect of not less than 90%, or phytotoxicity of 90% or more) | 5 (herbicidal effect of not less than 90%, or phytotoxicity of 90% or more) | 0 (herbicidal effect of not less than 0% and less than 10%, or phytotoxicity of 0% or more and less than 10%) | 0 (herbicidal effect of not less than 0% and less than 10%, or phytotoxicity of 0% or more and less than 10%) | 0 (herbicidal effect of not less than 0% and less than 10%, or phytotoxicity of 0% or more and less than 10%)
CON=C(Cn1cc(C)c(-c2ccccc2)n1)C(=O)NC1CCCCC1 [Compound 24] | 0 (herbicidal effect of not less than 0% and less than 10%, or phytotoxicity of 0% or more and less than 10%) | 0 (herbicidal effect of not less than 0% and less than 10%, or phytotoxicity of 0% or more and less than 10%) | 3 (herbicidal effect of not less than 50% and less than 70%, or phytotoxicity of 50% or more and less than 70%) | 4 (herbicidal effect of not less than 70% and less than 90%, or phytotoxicity of 70% or more and less than 90%) | 4 (herbicidal effect of not less than 70% and less than 90%, or phytotoxicity of 70% or more and less than 90%) | 4 (herbicidal effect of not less than 70% and less than 90%, or phytotoxicity of 70% or more and less than 90%) | 3 (herbicidal effect of not less than 50% and less than 70%, or phytotoxicity of 50% or more and less than 70%) | 5 (herbicidal effect of not less than 90%, or phytotoxicity of 90% or more) | 4 (herbicidal effect of not less than 70% and less than 90%, or phytotoxicity of 70% or more and less than 90%) | 4 (herbicidal effect of not less than 70% and less than 90%, or phytotoxicity of 70% or more and less than 90%) | 4 (herbicidal effect of not less than 70% and less than 90%, or phytotoxicity of 70% or more and less than 90%) | 4 (herbicidal effect of not less than 70% and less than 90%, or phytotoxicity of 70% or more and less than 90%) | 5 (herbicidal effect of not less than 90%, or phytotoxicity of 90% or more) | 4 (herbicidal effect of not less than 70% and less than 90%, or phytotoxicity of 70% or more and less than 90%) | 0 (herbicidal effect of not less than 0% and less than 10%, or phytotoxicity of 0% or more and less than 10%) | 0 (herbicidal effect of not less than 0% and less than 10%, or phytotoxicity of 0% or more and less than 10%) | 0 (herbicidal effect of not less than 0% and less than 10%, or phytotoxicity of 0% or more and less than 10%)
C=CCNC(=O)C(Cn1cc(C)c(-c2ccccc2)n1)=NOC [Compound 26] | 0 (herbicidal effect of not less than 0% and less than 10%, or phytotoxicity of 0% or more and less than 10%) | 0 (herbicidal effect of not less than 0% and less than 10%, or phytotoxicity of 0% or more and less than 10%) | 5 (herbicidal effect of not less than 90%, or phytotoxicity of 90% or more) | 5 (herbicidal effect of not less than 90%, or phytotoxicity of 90% or more) | 4 (herbicidal effect of not less than 70% and less than 90%, or phytotoxicity of 70% or more and less than 90%) | 5 (herbicidal effect of not less than 90%, or phytotoxicity of 90% or more) | 5 (herbicidal effect of not less than 90%, or phytotoxicity of 90% or more) | 5 (herbicidal effect of not less than 90%, or phytotoxicity of 90% or more) | 4 (herbicidal effect of not less than 70% and less than 90%, or phytotoxicity of 70% or more and less than 90%) | 5 (herbicidal effect of not less than 90%, or phytotoxicity of 90% or more) | 5 (herbicidal effect of not less than 90%, or phytotoxicity of 90% or more) | 5 (herbicidal effect of not less than 90%, or phytotoxicity of 90% or more) | 5 (herbicidal effect of not less than 90%, or phytotoxicity of 90% or more) | 5 (herbicidal effect of not less than 90%, or phytotoxicity of 90% or more) | 0 (herbicidal effect of not less than 0% and less than 10%, or phytotoxicity of 0% or more and less than 10%) | 0 (herbicidal effect of not less than 0% and less than 10%, or phytotoxicity of 0% or more and less than 10%) | 0 (herbicidal effect of not less than 0% and less than 10%, or phytotoxicity of 0% or more and less than 10%)
C#CCNC(=O)C(Cn1cc(C)c(-c2ccccc2)n1)=NOC [Compound 27] | 1 (herbicidal effect of not less than 10% and less than 30%, or phytotoxicity of 10% or more and less than 30%) | 0 (herbicidal effect of not less than 0% and less than 10%, or phytotoxicity of 0% or more and less than 10%) | 5 (herbicidal effect of not less than 90%, or phytotoxicity of 90% or more) | 5 (herbicidal effect of not less than 90%, or phytotoxicity of 90% or more) | 5 (herbicidal effect of not less than 90%, or phytotoxicity of 90% or more) | 5 (herbicidal effect of not less than 90%, or phytotoxicity of 90% or more) | 5 (herbicidal effect of not less than 90%, or phytotoxicity of 90% or more) | 5 (herbicidal effect of not less than 90%, or phytotoxicity of 90% or more) | 5 (herbicidal effect of not less than 90%, or phytotoxicity of 90% or more) | 5 (herbicidal effect of not less than 90%, or phytotoxicity of 90% or more) | 5 (herbicidal effect of not less than 90%, or phytotoxicity of 90% or more) | 5 (herbicidal effect of not less than 90%, or phytotoxicity of 90% or more) | 5 (herbicidal effect of not less than 90%, or phytotoxicity of 90% or more) | 5 (herbicidal effect of not less than 90%, or phytotoxicity of 90% or more) | 0 (herbicidal effect of not less than 0% and less than 10%, or phytotoxicity of 0% or more and less than 10%) | 0 (herbicidal effect of not less than 0% and less than 10%, or phytotoxicity of 0% or more and less than 10%) | 0 (herbicidal effect of not less than 0% and less than 10%, or phytotoxicity of 0% or more and less than 10%)
